Data as given in ChEMBL document CHEMBL1201862, “PubChem BioAssay data set” (2004).
Counter-ions that a name gives are not always drawn. The source made the active and inactive calls.

What was measured:
SUMO-activating enzyme = SUMO-activating enzyme (Homo sapiens, UniProt Q9UBT2); experiment: blockers of UBC9-mediated SUMO conjugation – biochemical, AlphaScreen, SUMOylation inhibitor project, confirmation (AID 2018); type: functional
[1] = Luminescence Cell-Based Dose Response to Identify Activators of 5'UTR Stem-Loop Driven Prion Protein mRNA Translation in H4-C Neuroglioblastoma Cells. [Related pubchem assays: 1829 (Project Summary), 1814 (Primary HTS)]; type: functional
Jurkat = experiment: blockers of NF-kB activation in T cells – Jurkat, luciferase reporter, luminescence, B- and T-cell, dose response (AID 489004); type: functional, cell-based; conditions: Homo sapiens;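 also: NF-kB luciferase reporter Jurkat cells stimulated with PMA plus ionomycin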
[2] = Counterscreen for AddAB inhibitors: absorbance-based bacterial cell-based high throughput dose response assay for inhibitors of bacterial viability. [Related pubchem assays (depositor defined):AID435030, AID449728, AID449731, AID488942, AID488955, AID488956]; type: functional
Insulin-degrading enzyme = molecular target: T1, Insulin-degrading enzyme (Homo sapiens, UniProt P14735); experiment: cellular IDE activation of Abeta substrate cleavage – fluorescence polarization, HEK cells, dose response (AID 588439); type: functional, cell-based
T1 sequence (P14735 whole entry): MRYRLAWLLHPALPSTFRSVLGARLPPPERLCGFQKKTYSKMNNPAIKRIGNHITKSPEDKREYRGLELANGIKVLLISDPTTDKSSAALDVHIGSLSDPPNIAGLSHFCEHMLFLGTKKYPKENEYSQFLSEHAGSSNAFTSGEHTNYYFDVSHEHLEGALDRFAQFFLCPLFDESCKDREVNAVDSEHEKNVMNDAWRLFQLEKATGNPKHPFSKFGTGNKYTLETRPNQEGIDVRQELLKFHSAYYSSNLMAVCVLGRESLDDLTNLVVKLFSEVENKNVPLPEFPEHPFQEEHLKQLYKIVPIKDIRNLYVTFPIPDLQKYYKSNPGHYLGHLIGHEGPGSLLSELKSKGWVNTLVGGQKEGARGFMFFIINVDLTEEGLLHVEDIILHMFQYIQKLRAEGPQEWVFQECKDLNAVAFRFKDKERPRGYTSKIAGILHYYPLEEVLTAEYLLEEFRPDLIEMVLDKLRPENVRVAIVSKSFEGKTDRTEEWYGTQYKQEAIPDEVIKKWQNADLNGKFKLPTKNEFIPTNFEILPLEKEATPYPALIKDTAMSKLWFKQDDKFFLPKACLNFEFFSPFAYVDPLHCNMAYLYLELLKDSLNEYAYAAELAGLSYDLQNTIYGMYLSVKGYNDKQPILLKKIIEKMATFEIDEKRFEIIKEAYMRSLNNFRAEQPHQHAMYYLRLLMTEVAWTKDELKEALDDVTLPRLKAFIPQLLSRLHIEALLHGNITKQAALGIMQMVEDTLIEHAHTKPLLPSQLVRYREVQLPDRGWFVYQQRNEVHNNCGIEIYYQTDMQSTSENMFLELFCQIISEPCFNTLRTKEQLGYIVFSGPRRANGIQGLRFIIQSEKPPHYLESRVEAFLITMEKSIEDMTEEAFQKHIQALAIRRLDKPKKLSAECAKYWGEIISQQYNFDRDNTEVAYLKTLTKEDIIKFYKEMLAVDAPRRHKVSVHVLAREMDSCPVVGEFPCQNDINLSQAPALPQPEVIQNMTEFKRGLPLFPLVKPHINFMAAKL

INS1 = experiment: INS-1E survival protection against cytokine death – cell-based, luminescence, retest, dose response (AID 449756); type: functional; conditions: Rattus norvegicus;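 also: cell death triggered by IL-1 beta plus TNF-alpha plus IFN-gamma mixture; protective hits raise ATP signal compared with cytokine alone wells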
Bcl-2-like protein 1 = Bcl-2-like protein 1 (Homo sapiens, UniProt Q07817); experiment: blockers of BCLXL peptide binding – biochemical, fluorescence polarization, 1536-well, selectivity assay for MCL1 inhibitor project, dose response (AID 2218)
[3] = molecular target: Megakaryocyte-associated tyrosine-protein kinase (Homo sapiens, UniProt P42679); type: functional;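 also: affinity measured as one member of a kinase panel (Navigating the Kinome) against MATK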
[4] = molecular target: Serine/threonine-protein kinase PLK3 (Homo sapiens, UniProt Q9H4B4); type: functional
[5] = molecular target: Proto-oncogene tyrosine-protein kinase receptor Ret (Homo sapiens, UniProt P07949); type: functional;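 also: measured within a kinome-wide profiling panel, RET as the panel member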
[6] = molecular target: Ribosomal protein S6 kinase beta-1 (Homo sapiens, UniProt P23443); type: functional;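 also: measured as one member of a kinome-wide profiling panel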
[7] = molecular target: Testis-specific serine/threonine-protein kinase 2 (Homo sapiens, UniProt Q96PF2); type: functional;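 also: part of the Navigating the Kinome panel, target entry STK22B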
[8] = molecular target: Death-associated protein kinase 3 (Homo sapiens, UniProt O43293); type: functional;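 also: measured as one member of a kinome-wide profiling panel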
Activin receptor type-1 = Activin receptor type-1 (Homo sapiens, UniProt Q04771); experiment: Navigating the Kinome. Panel member name: ACVR1; type: functional
[9] = molecular target: Serine/threonine-protein kinase pim-1 (Homo sapiens, UniProt P11309); type: functional
[10] = molecular target: Tyrosine-protein kinase BTK (Homo sapiens, UniProt Q06187); type: functional
[11] = molecular target: Tyrosine-protein kinase Lyn (Homo sapiens, UniProt P07948); type: functional;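 also: lyn as one member of a kinase panel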
LIM domain kinase 1 = LIM domain kinase 1 (Homo sapiens, UniProt P53667); experiment: Navigating the Kinome. Panel member name: LIMK1; type: functional
[12] = molecular target: Mitogen-activated protein kinase kinase kinase 20 (Homo sapiens, UniProt Q9NYL2); type: functional
[13] = molecular target: Glycogen synthase kinase-3 alpha (Homo sapiens, UniProt P49840); type: functional;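 also: GSK3A result taken from a broad kinome-wide kinase panel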
[14] = molecular target: Serine/threonine-protein kinase Chk1 (Homo sapiens, UniProt O14757); type: functional;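 also: measured as one member of a kinome-wide kinase profiling panel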
[15] = molecular target: Tyrosine-protein kinase ABL1 (Homo sapiens, UniProt P00519); type: functional
[16] = molecular target: cAMP-dependent protein kinase catalytic subunit PRKX (Homo sapiens, UniProt P51817); type: functional
Focal adhesion kinase 1 = Focal adhesion kinase 1 (Homo sapiens, UniProt Q05397); type: functional;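 also: measured as one member of a kinome panel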
[17] = molecular target: Calcium/calmodulin-dependent protein kinase type 1 (Homo sapiens, UniProt Q14012); type: functional
[18] = molecular target: Tyrosine-protein kinase Fyn (Homo sapiens, UniProt P06241); type: functional
[19] = molecular target: Vascular endothelial growth factor receptor 1 (Homo sapiens, UniProt P17948); type: functional;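 also: measured within a kinome-wide profiling panel, FLT1 as the panel member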
[20] = molecular target: Receptor tyrosine-protein kinase erbB-4 (Homo sapiens, UniProt Q15303); type: functional;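 also: ERBB4 member of a kinome-wide kinase profiling panel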
[21] = molecular target: Lymphokine-activated killer T-cell-originated protein kinase (Homo sapiens, UniProt Q96KB5); type: functional;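 also: value comes from a kinase panel screen in which TOPK was one of the panel members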

Mitogen-activated protein kinase kinase kinase 20, sequence (Q9NYL2 whole entry): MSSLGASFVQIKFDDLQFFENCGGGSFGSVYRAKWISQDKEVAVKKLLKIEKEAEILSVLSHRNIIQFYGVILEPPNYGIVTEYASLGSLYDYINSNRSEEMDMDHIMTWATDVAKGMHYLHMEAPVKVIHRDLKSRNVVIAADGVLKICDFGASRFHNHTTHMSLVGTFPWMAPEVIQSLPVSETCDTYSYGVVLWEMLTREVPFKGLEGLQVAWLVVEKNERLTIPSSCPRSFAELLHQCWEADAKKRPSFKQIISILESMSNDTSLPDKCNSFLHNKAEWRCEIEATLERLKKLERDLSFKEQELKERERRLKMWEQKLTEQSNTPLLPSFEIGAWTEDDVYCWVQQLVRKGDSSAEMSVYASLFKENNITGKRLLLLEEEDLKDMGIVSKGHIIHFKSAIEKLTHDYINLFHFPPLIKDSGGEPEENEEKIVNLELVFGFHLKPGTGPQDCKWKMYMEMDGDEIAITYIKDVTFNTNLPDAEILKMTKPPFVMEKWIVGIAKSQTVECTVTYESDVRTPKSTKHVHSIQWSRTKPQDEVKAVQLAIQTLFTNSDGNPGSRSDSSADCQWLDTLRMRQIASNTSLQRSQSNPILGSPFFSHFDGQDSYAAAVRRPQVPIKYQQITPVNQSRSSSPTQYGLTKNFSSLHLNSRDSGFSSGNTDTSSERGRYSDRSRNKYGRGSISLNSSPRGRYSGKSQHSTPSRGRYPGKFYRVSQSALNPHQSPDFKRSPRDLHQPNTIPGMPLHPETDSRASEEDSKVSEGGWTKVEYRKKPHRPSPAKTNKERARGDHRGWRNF
Activin receptor type-1, sequence (Q04771 whole entry): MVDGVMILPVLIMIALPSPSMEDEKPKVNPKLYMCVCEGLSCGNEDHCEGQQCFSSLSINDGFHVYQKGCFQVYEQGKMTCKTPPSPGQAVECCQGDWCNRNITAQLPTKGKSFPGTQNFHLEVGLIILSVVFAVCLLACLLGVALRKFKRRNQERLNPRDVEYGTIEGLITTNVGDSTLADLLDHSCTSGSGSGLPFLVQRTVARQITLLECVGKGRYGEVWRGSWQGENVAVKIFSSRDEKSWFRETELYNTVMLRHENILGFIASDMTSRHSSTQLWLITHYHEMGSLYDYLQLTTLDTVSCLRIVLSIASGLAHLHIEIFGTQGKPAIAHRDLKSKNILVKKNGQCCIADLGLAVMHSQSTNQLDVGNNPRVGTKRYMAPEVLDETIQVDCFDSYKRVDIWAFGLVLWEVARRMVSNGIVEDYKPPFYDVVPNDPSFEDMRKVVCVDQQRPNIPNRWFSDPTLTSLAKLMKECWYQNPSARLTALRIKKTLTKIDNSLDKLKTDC
Bcl-2-like protein 1, sequence (Q07817 whole entry): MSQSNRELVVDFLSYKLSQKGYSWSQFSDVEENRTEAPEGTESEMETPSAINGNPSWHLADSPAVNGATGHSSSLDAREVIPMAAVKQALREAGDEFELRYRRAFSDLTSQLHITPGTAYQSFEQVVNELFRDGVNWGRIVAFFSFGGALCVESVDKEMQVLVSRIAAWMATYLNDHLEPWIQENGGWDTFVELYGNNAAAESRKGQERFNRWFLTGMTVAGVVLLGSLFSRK
Serine/threonine-protein kinase PLK3, sequence (Q9H4B4 whole entry): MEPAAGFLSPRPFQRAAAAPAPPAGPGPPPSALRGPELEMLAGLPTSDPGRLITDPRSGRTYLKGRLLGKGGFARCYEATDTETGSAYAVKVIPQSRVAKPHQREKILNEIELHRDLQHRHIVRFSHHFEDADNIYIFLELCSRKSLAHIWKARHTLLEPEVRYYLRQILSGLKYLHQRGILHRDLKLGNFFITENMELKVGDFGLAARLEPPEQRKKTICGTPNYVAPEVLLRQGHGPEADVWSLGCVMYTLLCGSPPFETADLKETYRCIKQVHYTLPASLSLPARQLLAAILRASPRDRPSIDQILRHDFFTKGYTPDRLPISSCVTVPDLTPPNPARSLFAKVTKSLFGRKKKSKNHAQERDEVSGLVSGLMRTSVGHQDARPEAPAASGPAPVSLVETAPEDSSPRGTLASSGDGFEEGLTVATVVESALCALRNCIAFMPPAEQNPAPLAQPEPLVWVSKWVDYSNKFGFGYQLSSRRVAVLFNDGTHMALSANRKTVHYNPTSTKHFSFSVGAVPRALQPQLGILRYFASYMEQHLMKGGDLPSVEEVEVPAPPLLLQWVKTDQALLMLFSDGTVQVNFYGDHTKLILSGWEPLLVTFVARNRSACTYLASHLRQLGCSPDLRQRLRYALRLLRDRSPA
Calcium/calmodulin-dependent protein kinase type 1, sequence (Q14012 whole entry): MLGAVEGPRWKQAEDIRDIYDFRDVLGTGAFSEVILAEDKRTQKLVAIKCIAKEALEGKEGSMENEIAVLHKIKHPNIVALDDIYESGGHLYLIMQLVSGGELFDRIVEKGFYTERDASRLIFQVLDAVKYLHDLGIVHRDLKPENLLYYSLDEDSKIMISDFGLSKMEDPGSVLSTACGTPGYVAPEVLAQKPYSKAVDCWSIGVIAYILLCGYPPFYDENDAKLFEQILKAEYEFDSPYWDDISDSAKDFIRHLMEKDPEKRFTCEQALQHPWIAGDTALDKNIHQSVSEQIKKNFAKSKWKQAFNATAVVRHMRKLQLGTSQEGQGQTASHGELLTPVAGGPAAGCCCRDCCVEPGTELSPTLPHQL
Death-associated protein kinase 3, sequence (O43293 whole entry): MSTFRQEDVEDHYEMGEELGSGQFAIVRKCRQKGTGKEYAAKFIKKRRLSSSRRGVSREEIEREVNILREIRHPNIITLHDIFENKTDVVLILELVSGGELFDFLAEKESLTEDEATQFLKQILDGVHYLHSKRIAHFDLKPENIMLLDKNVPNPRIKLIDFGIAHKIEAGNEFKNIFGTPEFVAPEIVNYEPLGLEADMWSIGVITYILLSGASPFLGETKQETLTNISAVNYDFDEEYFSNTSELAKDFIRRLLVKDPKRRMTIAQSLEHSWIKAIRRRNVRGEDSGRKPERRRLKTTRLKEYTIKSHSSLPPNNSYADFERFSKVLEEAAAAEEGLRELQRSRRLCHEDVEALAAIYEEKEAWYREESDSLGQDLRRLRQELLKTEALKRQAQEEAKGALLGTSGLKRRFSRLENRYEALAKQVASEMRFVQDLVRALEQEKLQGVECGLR
Tyrosine-protein kinase Fyn, sequence (P06241 whole entry): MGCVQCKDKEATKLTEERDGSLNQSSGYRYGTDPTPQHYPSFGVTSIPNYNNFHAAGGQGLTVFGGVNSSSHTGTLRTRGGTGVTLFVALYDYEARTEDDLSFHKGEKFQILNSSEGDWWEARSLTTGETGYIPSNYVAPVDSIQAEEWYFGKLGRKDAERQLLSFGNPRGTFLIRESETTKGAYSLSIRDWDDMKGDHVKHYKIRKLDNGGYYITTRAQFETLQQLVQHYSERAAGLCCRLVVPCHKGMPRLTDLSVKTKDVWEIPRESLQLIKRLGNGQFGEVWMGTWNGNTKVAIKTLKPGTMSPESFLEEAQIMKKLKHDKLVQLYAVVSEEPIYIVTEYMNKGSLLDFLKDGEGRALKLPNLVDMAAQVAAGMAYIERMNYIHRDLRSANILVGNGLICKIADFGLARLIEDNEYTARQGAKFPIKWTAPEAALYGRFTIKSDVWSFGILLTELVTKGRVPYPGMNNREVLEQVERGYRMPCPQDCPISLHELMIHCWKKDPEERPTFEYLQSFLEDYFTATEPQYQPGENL
Proto-oncogene tyrosine-protein kinase receptor Ret, sequence (P07949 whole entry): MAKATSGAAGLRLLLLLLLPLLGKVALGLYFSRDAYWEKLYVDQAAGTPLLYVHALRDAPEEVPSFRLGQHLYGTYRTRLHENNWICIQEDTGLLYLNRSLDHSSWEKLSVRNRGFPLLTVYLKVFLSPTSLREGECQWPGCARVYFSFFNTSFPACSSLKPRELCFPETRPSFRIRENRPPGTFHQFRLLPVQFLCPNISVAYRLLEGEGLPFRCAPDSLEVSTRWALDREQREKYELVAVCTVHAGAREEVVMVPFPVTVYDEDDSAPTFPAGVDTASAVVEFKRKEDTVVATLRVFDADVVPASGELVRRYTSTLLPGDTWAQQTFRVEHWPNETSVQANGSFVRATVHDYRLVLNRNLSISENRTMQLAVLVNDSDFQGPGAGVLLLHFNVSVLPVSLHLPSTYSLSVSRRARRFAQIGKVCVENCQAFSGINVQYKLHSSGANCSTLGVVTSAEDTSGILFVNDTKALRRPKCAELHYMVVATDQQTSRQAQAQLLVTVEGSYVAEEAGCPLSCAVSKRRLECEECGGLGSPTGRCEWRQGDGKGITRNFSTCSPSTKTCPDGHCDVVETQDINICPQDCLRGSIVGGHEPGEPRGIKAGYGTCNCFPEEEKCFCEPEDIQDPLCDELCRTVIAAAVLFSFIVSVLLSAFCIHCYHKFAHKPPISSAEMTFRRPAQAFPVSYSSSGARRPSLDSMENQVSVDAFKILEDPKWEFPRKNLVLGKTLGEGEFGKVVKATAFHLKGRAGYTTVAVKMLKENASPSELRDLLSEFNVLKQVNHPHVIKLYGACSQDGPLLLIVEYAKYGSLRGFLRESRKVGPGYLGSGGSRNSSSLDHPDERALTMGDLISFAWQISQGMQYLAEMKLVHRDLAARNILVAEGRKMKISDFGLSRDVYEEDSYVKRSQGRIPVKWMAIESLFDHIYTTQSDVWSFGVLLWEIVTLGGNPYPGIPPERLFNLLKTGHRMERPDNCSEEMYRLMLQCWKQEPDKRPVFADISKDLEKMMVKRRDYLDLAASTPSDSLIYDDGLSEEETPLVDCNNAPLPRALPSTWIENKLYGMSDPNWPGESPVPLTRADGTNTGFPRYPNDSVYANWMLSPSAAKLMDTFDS
cAMP-dependent protein kinase catalytic subunit PRKX, sequence (P51817 whole entry): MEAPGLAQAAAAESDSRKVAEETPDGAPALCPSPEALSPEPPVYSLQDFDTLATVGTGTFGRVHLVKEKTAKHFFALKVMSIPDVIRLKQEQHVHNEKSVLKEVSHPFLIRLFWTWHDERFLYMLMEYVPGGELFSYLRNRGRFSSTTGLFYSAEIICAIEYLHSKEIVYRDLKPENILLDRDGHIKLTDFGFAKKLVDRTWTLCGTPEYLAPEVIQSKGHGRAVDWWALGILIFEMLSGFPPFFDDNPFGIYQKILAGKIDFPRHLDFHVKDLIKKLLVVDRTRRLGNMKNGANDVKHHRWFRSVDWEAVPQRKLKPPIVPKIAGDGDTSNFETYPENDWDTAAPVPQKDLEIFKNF

Question: With CCC(C)n1c(NC(=O)c2ccccc2)c(C#N)c2nc3ccccc3nc21 (centres undefined) as the molecule, how does the IC50 (SUMO-activating enzyme) read?
Answer: 3.51 µM (active)

Question: For CCN1/C(=C\c2ccc3ccccc3[n+]2CC)Sc2cc(C)ccc21, which EC50 [1] is on record?
Answer: > 12 µM (not active)

Question: And the IC50 (Jurkat)?
Answer: 15.5 µM (active)

Question: And the IC50 [2]?
Answer: 37.5 µM (inactive)

Question: Which EC50 (Insulin-degrading enzyme) does the source give for CCCCCCCCCCOC(=O)C[n+]1c(COc2ccc(C)cc2)n(C)c2ccccc21 here?
Answer: > 6.08 µM (active)

Question: And the AC50 (INS1)?
Answer: 3.4 µM (active)

Question: For CC[C@@H](CO)NC(=O)[C@@H]1C=C2c3cccc4c3c(cn4C)C[C@H]2N(C)C1 [METHYSERGIDE MALEATE], which IC50 (Bcl-2-like protein 1) is on record?
Answer: 22.6 µM (not active)

Question: For CN1CCN(c2nc(C3=C(c4c[nH]c5ccccc45)C(=O)NC3=O)c3ccccc3n2)CC1 [SOTRASTAURIN], which Ki [3] is on record?
Answer: > 2 µM (inactive)

Question: What about the Ki [4] of the same molecule?
Answer: > 7.94 µM (inactive)

Question: What about the Ki [5] of the same molecule?
Answer: > 2 µM (inactive)

Question: What about the Ki [6] of the same molecule?
Answer: 0.158 µM (active)

Question: What about the Ki [7] of the same molecule?
Answer: > 1.58 µM (inactive)

Question: And the Ki [8]?
Answer: > 3.16 µM (inactive)

Question: What about the Ki (Activin receptor type-1) of the same molecule?
Answer: > 3.98 µM (inactive)

Question: What about the Ki [9] of the same molecule?
Answer: 0.158 µM (active)

Question: And the Ki [10]?
Answer: > 3.98 µM (inactive)

Question: And the Ki [11]?
Answer: > 1.58 µM (inactive)

Question: What about the Ki (LIM domain kinase 1) of the same molecule?
Answer: > 3.16 µM (inactive)

Question: And the Ki [12]?
Answer: > 7.94 µM (inactive)

Question: And the Ki [13]?
Answer: 0.158 µM (active)

Question: And the Ki [14]?
Answer: > 5.01 µM (inactive)

Question: What about the Ki [15] of the same molecule?
Answer: > 1.58 µM (inactive)

Question: And the Ki [16]?
Answer: > 2.51 µM (inactive)

Question: And the Ki (Focal adhesion kinase 1)?
Answer: > 6.31 µM (inactive)

Question: And the Ki [17]?
Answer: > 6.31 µM (inactive)

Question: What about the Ki [18] of the same molecule?
Answer: > 3.16 µM (inactive)

Question: What about the Ki [19] of the same molecule?
Answer: > 2 µM (inactive)

Question: What about the Ki [20] of the same molecule?
Answer: > 3.98 µM (inactive)

Question: What about the Ki [21] of the same molecule?
Answer: > 10 µM (inactive)
